Columns and labels:
prostate [1] = details: young men under exogenic testosterone administration; cited from earlier work
[2] = test system: prostate of castrated male NMRI mice; test: Prostate weights of castrated mice after combined testosterone/gestagen treatment; type: in vivo
Experimental: The inhibition of a prostate growth that was induced by androgens and that was treated with a combination according to the invention, was also examined in the animal experiment.
To this end, 5 male NMRI mice of Møllegaard Breeding Centre Deutschland GmbH, Schönwalde weighing 28-30 g were castrated. Two weeks after the castration, testosterone propionate (TP) by itself—0.1 mg/animal—was administered to the control animals.
Also, two weeks after castration, the test animals were orally treated daily for one week with testosterone propionate (TP) 0.1 mg/animal/day s.c. and simultaneously with the following gestagens and the following dosages:
cyproterone acetate (CPA) at dosages of 0.1; 0.3; 1; 3 mg/animal/day dienogest (DNG) at dosages of 0.3; 1; 3; 10 mg/animal/day, chloromadinone acetate (CMA) at dosages 0.3; 1; 3; 10 mg/animal/day.
At the end of the test, the prostate weights of the mice were determined, and the test groups were compared.

LNCaP prostate cells = test: Inhibition of androgen-dependent cell proliferation in LNCaP prostate cells (growth assay, cell number after 7 days); type: cell-based, human; details: androgen alone, FIG. 1
From the text: In the example of the inhibition of the androgen-dependent cell proliferation in LNCaP prostate cells, the biological mechanism of action of the combination of 17β-hydroxy-17α-methyl-estra-4,9,11-trien-3-one (R 1881)+the 17α-cyano-methyl-17β-hydroxy-estra-4,9-dien-3-one (DIENOGEST=DNG) was examined.
To this end, the human prostate cancer cell LNCaP was cultivated under routine conditions in Dulbecco's modified Eagle medium (DMEM) with the addition of 10% FCS (fetal calf serum).
The cells were then cultured for 2 to 6 passages with DMEM and 10% DCC-FCS (steroid-depleted FCS), before it was used in a growth assay with 5% DCC-FCS.
For the test, the cells were saturated in 24-well plates (10,000 cells/well and ml).
After 24 hours, the steroids that were dissolved in ethanol were added to fresh test medium (final concentration of ethanol 0.1%), and the cells were incubated for 7 days at 37° (5% CO2). The cell number was determined after this time in a cell counting and analysis system (CASY, Scharfe System GmbH).

prostate [3] = details: 8-month therapy, 23 men aged 40-65 years, 160 mg/day; cited from earlier work

Question: Which “Prostate size by transrectal ultrasound” value (prostate [1]) does the source give for CCCCCCC(=O)O[C@H]1CC[C@H]2[C@@H]3CCC4=CC(=O)CC[C@]4(C)[C@H]3CC[C@]12C [testosterone enanthate] here?
Answer: an enlargement of the prostate was found

Question: Which results are given for CCC(=O)O[C@H]1CC[C@H]2[C@@H]3CCC4=CC(=O)CC[C@]4(C)[C@H]3CC[C@]12C [TP, testosterone propionate]?
Answer: Effect on prostate weight compared to the castrated and the intact control animals ([2]; 0.1 mg/animal/day): causes a clear increase of the prostate weight; Prostate weight (mean value ± S.D.) ([2]; TP 0.1 mg/animal alone (TP control), n = 5): 4.4 ± 0.7 mg

Question: Which “Cell growth of LNCaP cells” value (LNCaP prostate cells) does the source give for C[C@]1(O)CC[C@H]2[C@@H]3CCC4=CC(=O)CCC4=C3C=C[C@@]21C [R1881, 17β-hydroxy-17α-methyl-estra-4,9,11-trien-3-one] here?
Answer: induces a cell growth

Question: Which “Increase in size of the prostate” value (prostate [3]) does the source give for CCCCCCCCCCC(=O)O[C@H]1CC[C@H]2[C@@H]3CCC4=CC(=O)CC[C@]4(C)[C@H]3CC[C@]12C [testosterone undecanoate] here?
Answer: 12%
